The values that follow come from the supplement of paper PMC10949913.

Holding throughout (assay): area under concentration-response curve (viability) (AUC (a.u.)); higher = less active
Holding throughout (details): 48 h

The subject of one assay is CU-ACC1. The method, boiled down: (§1)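 AC50 and area under the curve values derive from fitted concentration-response curves, restricted to inhibitory or non-responding curve classes. The curves came from three adrenocortical carcinoma cell lines in 1,536-well plates, each receiving 23 nL of every library compound at 11 concentrations. Viability was read by CellTiter-Glo luminescence after 48 h, normalised per plate to vehicle and empty-well controls.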

The next assay concerns NCI-H295R. The method in brief: as §1
For a further assay, the system named is CU-ACC2. The method in brief: as §1

Regarding `Nc1cc(COc2c(Cl)cc(C[C@H](N)C(=O)O)cc2Cl)c2oc(-c3ccccc3)nc2c1`, the figures for the “area under concentration-response curve” value in the assay with CU-ACC1, in the assay with NCI-H295R and in the assay on CU-ACC2 were 488, 588 and 577, respectively.
On the same counts, the results for `Cn1c(/C=C/CO)c(CO)c2c1C(=O)C=C(N1CC1)C2=O` are 461, 514 and 580.
On the same counts, the results for `CN[C@@H](C)C(=O)N[C@@H]1C(=O)N(Cc2c(C)ccc3ccccc23)c2ccc(C#N)cc2N(C(C)=O)[C@H]1C` are 501, 549 and 474.
Take `Cc1cccc(-c2nn(C(=S)Nc3ccccc3)cc2-c2ccnc3ccccc23)n1`: the “area under concentration-response curve” value with CU-ACC1 worked out at 506; in the assay with NCI-H295R, 470; in the assay with CU-ACC2 it was 590.
For `COc1cc2ncnc(Nc3ccc(O)c(Br)c3)c2cc1OC` the same measures were 479, 528 and 602.
On the same counts, the results for `C=C(c1ccc(C(=O)O)cc1)c1cc2c(cc1C)C(C)(C)CCC2(C)C` are 509, 511 and 500.
Turning to `CC(=O)C1CCC2C3CC\C4=C\C(=O)CCC4(C)C3CCC12C` (stereo not given), the “area under concentration-response curve” value came to 548 in the assay with CU-ACC1, 607 in the assay on NCI-H295R and 645 with CU-ACC2.
On the same counts, the results for `COCCNc1cc(NC(=O)N2CCCc3cc(CN4CCN(C)CC4=O)c(C=O)nc32)ncc1C#N` are 552, 564 and 550.
On to `Cc1noc(-c2ccc(-c3ccc(C4(C(=O)O)CC4)cc3)cc2)c1NC(=O)O[C@H](C)c1ccccc1`, for which the “area under concentration-response curve” value was 485 in the assay on CU-ACC1, 526 in the assay on NCI-H295R and 446 with CU-ACC2.
On the same counts, the results for `Nc1nc(F)nc2c1ncn2[C@@H]1O[C@H](COP(=O)(O)O)[C@@H](O)[C@@H]1O` are 527, 514 and 521.
`Cc1nc2ccc(-n3ncc(C(=O)c4cc5ccccc5[nH]4)c3N)cc2[nH]1`: the “area under concentration-response curve” value with CU-ACC1 turned out to be 550; with NCI-H295R it was 519; in the assay on CU-ACC2 it was 595.
For `CO[C@H]1/C=C/O[C@@]2(C)Oc3c(C)c(O)c4c(O)c(c(/C=N/N5CCN(C)CC5)c(O)c4c3C2=O)NC(=O)/C(C)=C\C=C\[C@H](C)[C@H](O)[C@@H](C)[C@@H](O)[C@@H](C)[C@H](OC(C)=O)[C@@H]1C` the same measures were 550, 560 and 624.
Consider `Nc1cccc(-c2cc3c(Oc4cccc(O)c4)ncnc3[nH]2)c1`, for which the results for the “area under concentration-response curve” value in the assay on CU-ACC1, in the assay with NCI-H295R and in the assay with CU-ACC2 were 524, 530 and 534, respectively.
On the same counts, the results for `CNC[C@H](O)c1ccc(O)c(O)c1` are 530, 592 and 608.
For `NCCc1c[nH]cn1` the same measures were 416, 548 and 605.
Turning to `O=C1O[C@]2(CC[C@@H](C(=O)Nc3ccn(-c4ccccc4F)n3)CC2)c2cnccc21`, the “area under concentration-response curve” value in the assay on CU-ACC1 was 492; with NCI-H295R it was 494; in the assay with CU-ACC2 it was 602.
For `CCCCCCCCCCCCCCCCCCCCCCO` the same measures were 538, 525 and 562.
As to `CN1C(=O)C(=C\C2=C1N=C(NC3=CC=CC(=C3)C(O)=O)N=C2)/C4=C(Cl)C=CC=C4Cl`, the results for the “area under concentration-response curve” value with CU-ACC1, in the assay with NCI-H295R and with CU-ACC2 were 515, 483 and 528, respectively.
On the same counts, the results for `Nc1nc(-c2nn(Cc3ccccc3F)c3ncccc23)ncc1C1CC1` are 538, 544 and 533.
As to `NCCc1ccc(O)c(O)c1`, the “area under concentration-response curve” value came to 506 in the assay with CU-ACC1, 478 in the assay with NCI-H295R and 586 in the assay with CU-ACC2.
For `CN(C)c1ccc(O)c2c1C[C@H]1C[C@H]3[C@H](N(C)C)C(O)=C(C(N)=O)C(=O)[C@@]3(O)C(O)=C1C2=O` the same measures were 453, 473 and 524.
On to `Nc1ncnc2c1c(COc1cccc(Cl)c1)nn2C1CCOCC1`, for which the “area under concentration-response curve” value came out at 461 in the assay on CU-ACC1, 525 in the assay with NCI-H295R and 578 in the assay on CU-ACC2.
For `CC(C)n1cc(-c2ccc3c(c2)N(C)CC3)c2c(N[S+](=O)([O-])c3ccn(C)n3)ccnc21` the same measures were 516, 568 and 638.
As for `c1coc(CNc2ncnc3nc[nH]c23)c1`, the results for the “area under concentration-response curve” value in the assay with CU-ACC1, in the assay on NCI-H295R and in the assay on CU-ACC2 were 409, 565 and 556, respectively.
For `CN1CCN(C(=O)[C@H]2[C@@H](C(=O)O)[C@H]3CC[C@@H]2O3)CC1` the same measures were 628, 620 and 699.
As to `N[C@@H](CCC(=O)O)C(=O)N[C@@H](Cc1c[nH]c2ccccc12)C(=O)O`, the “area under concentration-response curve” value in the assay on CU-ACC1 stood at 493; in the assay on NCI-H295R, 519; with CU-ACC2, 584.
For `O=C(NCc1ccncc1)C12C[C@H]3C[C@@H](C1)CC(c1ccc(Cl)cc1)(C3)C2` the same measures were 486, 468 and 576.
For `CNc1nc(C)nc(N[C@H]2CCC[C@@H](C(=O)NCc3ccc(C#N)cc3C(F)(F)F)C2)n1` the same measures were 497, 496 and 593.
For `CC(C)c1cc(C(C)C)c(CC(=O)N[S+](=O)([O-])Oc2c(C(C)C)cccc2C(C)C)c(C(C)C)c1` the same measures were 456, 480 and 454.
For the compound `OC(=O)C1=CC=C(NC2=NC3=C(C\N=C(/C4=CC(=CC=C34)Cl)C5=C(F)C=CC=C5F)C=N2)C=C1`, the “area under concentration-response curve” value with CU-ACC1 was found to be 504; in the assay with NCI-H295R, 517; in the assay with CU-ACC2 it was 559.
On the same counts, the results for `CCCOc1ccc(C(=O)OCCN(CC)CC)cc1N` are 377, 481 and 530.
Consider `CN1C(=O)CC[S+](=O)([O-])C1c1ccc(Cl)cc1` (stereo not given), for which the “area under concentration-response curve” value in the assay with CU-ACC1 is 553; with NCI-H295R it was 572; in the assay on CU-ACC2, 534.
For `O=C1[O][Pt]2([NH]C3CCCCC3[NH]2)[O]C1=O` (stereo not given) the same measures were 564, 565 and 631.
For `Nc1nc(Cl)nc2c1ncn2[C@@H]1O[C@H](CO)[C@@H](O)[C@@H]1F` the same measures were 468, 537 and 559.
For `COC1(C[S+]([O-])c2ccccc2)CCN(CCc2c[nH]c3ccc(F)cc23)CC1` (stereo not given) the same measures were 477, 493 and 469.
In the case of `CN1\C(=C(\O)C2=C(C=CS2)[S+]1([O-])=O)C(=O)NC3=CC=CC=N3`, the results for the “area under concentration-response curve” value with CU-ACC1, with NCI-H295R and with CU-ACC2 were 548, 573 and 616, respectively.
On the same counts, the results for `Nc1nc(OC(c2ccc(-c3cccc(F)c3)cc2)C(F)(F)F)cc(-c2ccc(C[C@@H](N)C(=O)O)cc2)n1` (stereo not given in full) are 464, 449 and 488.
On the same counts, the results for `O=C(c1c(F)ccc(N[S+](=O)([O-])N2CC[C@@H](F)C2)c1F)c1c[nH]c2ncc(-c3cnc(C4CC4)nc3)cc12` are 470, 474 and 574.
For `Cc1nc[nH]c1CN1CCN(C(=O)N[C@@H](CC(C)C)C(=O)O)[C@@H](Cc2ccccc2)C1=O`, the results for the “area under concentration-response curve” value with CU-ACC1, in the assay with NCI-H295R and with CU-ACC2 were 576, 545 and 621, respectively.
On the same counts, the results for `COc1ccc2[nH]c(C(=O)N3CCC(CC(C)(C)O)CC3)cc2c1` are 484, 572 and 609.
